Type in all cases: cell-based, mouse
For assay [1], the system named is bone marrow-derived macrophages (MΦ^BM). Description: Fibrillar Aβ1-42 phagocytosis assay in bone marrow-derived macrophages. The procedure: Lyophilized non-fluoro amyloid-β1-42 peptide (#20276; Anaspec) was initially monomerized by dissolving it in ice-cold HFIP (hexafluoroisopropanol) (#52512; Sigma) to a final concentration of 1 mM and then aliquoted in sterile siliconized microcentrifuge tubes. The HFIP was first evaporated while in the sterile hood and then under vacuum conditions in a SpeedVac for 2 h to remove any trace of HFIP; the peptide film was stored at −20° C. until use. To induce fibril formation, fluoro (HiLyte647; #64161; Anaspec) and non-fluoro amyloid-β1-42 films were resuspended in media to which 10% of sterile NaOH 60 mM was first added and the media were vortexed for 30 s. Then, a sterile 45% H2O and a sterile 45% solution of 20 mM NaH2PO4+Na2HPO4 (pH 7.4) were added, and the media were vortexed again and incubated on a shaker for 2 weeks at 37° C. Pre-formed amyloid-β1-42 fibrils were then sonicated for 60 s and diluted to 100 nM using the same media prior to the phagocytosis assay.
To test amyloid-β phagocytosis by macrophage, in repeated experiments monocytes were isolated from the bone marrow of wild-type mice (n=18 mice) and differentiated into macro-phage by 7-day cultivation in complete RPMI-1640 medium (#21870; Life Technologies) with 10% serum and 20 ng/ml MCSF (#315-02; PeproTech). Bone marrow-derived macrophages (MΦBM) were generated from femurs and tibiae cultured for 6-7 days in complete RPMI 1640 medium (Life Technologies) with 10% FBS, 100 U/ml penicillin, 100 μg/ml streptomycin, 2 mM L-glutamine and 20 ng/ml MCSF (PeproTech). Primary cultures of macrophage were then plated at 1.2×10^5 cells per well (3-4 wells for each condition) in 24-well tissue-culture plates on glass cover-slips overnight. Next, macrophages were either treated with 30 μg/ml GA (Copaxone®; TEVA Neuroscience), Brefeldin A (BFA; Sigma, 1X), or 10 μM Minocycline (Sigma) for the duration of 1, 3, or 24 h, or not treated (control group). Before addition of fibrillar amyloid-β1-42, the cells were chilled in a 4° C. ice bath for 5 min; immediately after addition of the preformed fibrillar amyloid-β1-42 (100 nM), the plates were centrifuged at 515g in 25° C. followed by incubation at 37° C. for 30 or 60 min. The cells were then rinsed with amyloid-β-free medium to remove non-incorporated amyloid-β and later washed twice with PBS. Methanol (99.8%) at −20° C. for 20 min or 4% paraformaldehyde at room temperature for 12 min was used for fixation of the cells followed by repeated washes with PBS. […] The fluorescent signal and its total area were determined and quantified by the conversion of individual images to greyscale and standardizing to baseline using histogram-based thresholds with NIH ImageJ software. […]

The subject of a further assay is MΦ^BM. Description: Macrophage cell length measurement. Particulars: GA treatment (FIG. 16A-16B). The procedure:
A set of three Stealth OPN siRNAs made up of 25-bp duplex oligoribonucleotides each were used with sequences corresponding to the sense and antisense strands of OPN (Invitrogen). Equal amounts (100 nM each) of siRNAs were mixed and diluted in OptiMEM (Gibco) to finalconcentration of 100nmol/L, then transiently transfected into MΦ^BM using Lipofectamine® RNAiMAX Transfection Reagent (Invitrogen), per manufacturer's protocol. Control macrophages were transfected with Stealth RNAi™ siRNA Negative Control. MΦ^BM were incubated for 48 hours after transfection, and were used for subsequent experiments.
The long and short axes of cells were manually measured in μm from microscopic images (McWhorter et al., Proceedings of the National Academy of Sciences of the U.S. Pat. No. 2,013,110:17253-17258) using length tools in the Axiovision Rel. 4.8 software package. At least 100 cells were examined in each experiment where individual cells were assayed by microscopy.
Macrophages can acquire distinct phenotypes and biological functions depending on their microenvironment. Past studies reported that OPN promotes macrophages to switch to the anti-inflammatory M2 phenotype. The possible role of OPN in macrophage polarization towards an anti-inflammatory phenotype, which has been associated with elongated cell shape was explored. […]

In the next assay the test system is OPN. Description: Western blot of OPN and its MMP-cleaved fragments in macrophages. The note with it: Western blot band density (FIG. 16I-16J). The procedure: MΦ^BM were lifted from each cell by 2 mM EDTA-PBS, collected in an Eppendorf tube, and centrifuged. Cell pellets were lysed in RIPA buffer (Thermo Scientific) and supplemented with a cocktail of protease inhibitors (Thermo Scientific). Protein concentration was determined using a BCA Protein Assay Kit (Thermo Scientific). Aliquots of protein samples were electrophoretically separated using 4-12% Bis-Tris gels (Invitrogen), then transferred to nitrocellulose membranes, blocked in Tris-buffered saline (TBS) containing 5% (w/v) non-fat dry milk, and hybridized with appropriate primary antibodies, including rabbit polyclonal OPN (Abcam), goat polyclonal OPN (R&D systems), and Actin (Abcam). Membranes were then incubated with the appropriate HRP-conjugated secondary antibody prior to development with chemiluminescent substrates. Densitometric analysis of blots was conducted using ImageJ software, and each experimental sample was normalized to Actin.
Next, MMP-9 expression and OPN proteolytic fragments were analyzed. […] OPN is a known substrate for MMPs (including MMP-9). A detailed analysis of OPN expression in macrophages was performed using a polyclonal antibody recognizing full-length OPN and its MMP-cleaved fragments, including the 32 kD form. […] Remarkably, the MMP-generated 32kD C-terminus-containing peptide was elevated 12-fold after GA treatment. […]
(In general: Immunoblotting shows a protein as a band on a membrane.)

On to glatiramer acetate [GA], for which the “increase of Aβ phagocytosis” value in assay [1] (24 hours treatment, then fAβ1-42 for 30 min, quantitative ICC (FIG. 16E)) stood at 2.5 fold. The “increase of fibrillar Aβ1-42 uptake in MΦ^BM” value in assay [1] (GA pretreated, 100 nM fibrillar Aβ1-42 for 30 min, qICC and ELISA) is given as 2.5-2.85 fold. Besides, the “rise in fAβ1-42 uptake” value in assay [1] (GA-treated MΦ (FIG. 5D)) worked out at 2.8 fold. The substance also displayed a cell length increase with MΦ^BM of 1.3 fold. In the assay with OPN, the “elevation of MMP-generated 32kD C-terminus-containing OPN peptide” value was 12 fold.
